This passage reports IC50 results from patent publication US20220348572A1, “BRIDGED HETEROCYCLYL-SUBSTITUTED PYRIMIDINE COMPOUND, PREPARATION METHOD THEREFOR, AND PHARMACEUTICAL USE THEREOF” (The National Institutes of Pharmaceutical R&D Co., Ltd., priority 2019, published 2022).

SMILES strings stand for the structures.

T1 sequence (P23458 866-1154 limits assumed): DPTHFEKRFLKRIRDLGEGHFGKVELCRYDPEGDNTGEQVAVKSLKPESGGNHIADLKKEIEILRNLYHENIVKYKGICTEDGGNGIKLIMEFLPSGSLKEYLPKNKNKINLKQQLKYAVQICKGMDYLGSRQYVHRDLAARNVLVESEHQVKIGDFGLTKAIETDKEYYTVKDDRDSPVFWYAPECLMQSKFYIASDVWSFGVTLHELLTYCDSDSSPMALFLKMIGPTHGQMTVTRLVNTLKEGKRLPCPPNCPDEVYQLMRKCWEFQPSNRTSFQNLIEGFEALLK

The test addresses T1, JAK1 kinase (Homo sapiens, UniProt P23458).
T1 construct: purchased Invitrogen PV4744
Nature of the test: In vitro inhibitory activity on JAK1 kinase (ADP-Glo Kinase Assay). It counts as biochemical. As to conditions: JAK1 kinase 4 nM, 1 mM ATP. Here is the method: Test Example 1: Determination of In Vitro Inhibitory Activity of the Compounds of the Present Invention on JAK1 Kinase Experimental materials: JAK1 kinase (Invitrogen, PV4744), ATP (Promega, V915B), ADP-Glo Kinase Assay (Promega, V9101), IRS1 (Signalchem, 140-58-1000). Sample preparation: The compounds of the present invention and the control product were dissolved in DMSO solvent respectively to formulate into 10 mM initial liquid. The maximum concentration of the compound was 10 μM, 3-fold dilution, 10 concentration gradients, and duplicate wells for each concentration gradient. Experimental processs: 0.1 μL of the compound to be tested was transferred into a 384 reaction plate (PE, 6007290) via Echo and centrifuged at 1000 rpm/min for 1 min. 5 μL JAK1 kinase (final concentration of 4 nM) was transferred into the 384 reaction plate, which was then centrifuged at 1000 rpm/min for 1 min, and incubated at 25° C. for 15 min. 5 μL substrate mixture (1 mM ATP, IRS1 0.05 mg/ml, kinase buffer solution) was transferred into the 384 reaction plate, which was then centrifuged at 1000 rpm/min for 1 min, and incubated at 25° C. for 60 min. 10 μL ADP-Glo was transferred into the 384 reaction plate, which was then centrifuged at 1000 rpm/min for 1 min, and incubated at 25° C. for 40 min. 20 μL test solution was transferred into the 384 reaction plate, which was then centrifuged at 1000 rpm/min for 1 min and incubated at 25° C. for 40 min. RLU (Relative luminescence unit) signal was read by using an Envision multifunctional plate reader. The signal intensity was used to characterize the degree of the kinase activity. […] IC50 value of 0-100 nM is shown as A, IC50 value of 100-300 nM is shown as B, IC50 value of 300-1000 nM is shown as C, and IC50 value which is greater than 1000 nM is shown as D. NT means not tested.
Regarding `O=C([C@@H]1CC1(F)F)N1C2C=C(c3ccnc(Nc4cnn(C5CC5)c4)n3)CC1CC2` (stereo partly drawn) [Compound 36, (3-(2-((1-cyclopropyl-1H-pyrazol-4-yl)amino)pyrimidin-4-yl)-8-azabicyclo[3.2.1]oct-2-en-8-yl)((S)-2,2-difluorocyclopropyl)methanone], the IC50 was in the range of 100 to 300 nM. The compound `Cn1cc(Nc2nccc(C3=CC4CCC(C3)N4C(=O)NC3COC3)n2)cn1` (centres unmarked) [Compound 15, 3-(2-((1-methyl-1H-pyrazol-4-yl)amino)pyrimidin-4-yl)-N-(oxetan-3-yl)-8-azabicyclo[3.2.1]oct-2-ene-8-carboxamide] showed an IC50 of 300 to 1000 nM. In turn, `Cn1cc(Nc2nccc(C3=CC4CCC(C3)N4C(=O)C3CC3(F)Cl)n2)cn1` (centres unmarked) [Compound 50, (2-chloro-2-fluorocyclopropyl)(3-(2-((1-methyl-1H-pyrazol-4-yl)amino)pyrimidin-4-yl)-8-azabicyclo[3.2.1]oct-2-en-8-yl)methanone] gave an IC50 of 100 to 300 nM.

`Cn1cc(Nc2nccc(C3=CC4CCC(C3)N4C(=O)NCCOC(F)(F)F)n2)cn1` (centres unmarked) [Compound 58, 3-(2-((1-methyl-1H-pyrazol-4-yl)amino)pyrimidin-4-yl)-N-(2-(trifluoromethoxy)ethyl)-8-azabicyclo[3.2.1]oct-2-ene-8-carboxamide]: the 50% inhibitory concentration (IC50) is 100 to 300 nM.

In turn, `Cn1cc(Nc2nccc(C3=CC4CCC(C3)N4C(=O)C3CC(CO)C3)n2)cn1` (centres unmarked) [Compound 81, (3-(hydroxymethyl)cyclobutyl)(3-(2-((1-methyl-1H-pyrazol-4-yl)amino)pyrimidin-4-yl)-8-azabicyclo[3.2.1]oct-2-en-8-yl)methanone] yielded a 50% inhibitory concentration (IC50) above 1000 nM. Take `Cn1cc(Nc2nccc(C3=CC4CCC(C3)N4C(=O)C3(C)CC3(F)F)n2)cn1` (centres unmarked) [Compound 48, (2,2-difluoro-1-methylcyclopropyl)(3-(2-((1-methyl-1H-pyrazol-4-yl)amino)pyrimidin-4-yl)-8-azabicyclo[3.2.1]oct-2-en-8-yl)methanone]: the IC50 is above 1000 nM. For the compound `Cn1cc(Nc2nccc(C3=CC4CCC(C3)N4C(=O)C3CCC3C#N)n2)cn1` (centres unmarked) [Compound 77, 2-(3-(2-((1-methyl-1H-pyrazol-4-yl)amino)pyrimidin-4-yl)-8-azabicyclo[3.2.1]oct-2-ene-8-formyl)cyclobutane-1-carbonitrile], the IC50 was below 100 nM. The value for `Cc1cnc(Nc2cnn(C)c2)nc1C1=C[C@H]2CC[C@@H](C1)N2C(=O)NCC(F)(F)F` [Compound 19-b, (1R,5S)-3-(5-methyl-2-((1-methyl-1H-pyrazol-4-yl)amino)pyrimidin-4-yl)-N-(2,2,2-trifluoroethyl)-8-azabicyclo[3.2.1]oct-2-ene-8-carboxamide] was below 100 nM; that for `Cn1cc(Nc2nccc(C3=CC4CCC(C3)N4C(=O)C3CC3c3ccccc3)n2)cn1` (centres unmarked) [Compound 59] was 300 to 1000 nM. The value for `C[C@H](NC(=O)N1C2C=C(c3ccnc(Nc4cnn(C)c4)n3)CC1CC2)C(F)(F)F` (stereo partly drawn) [Compound 55, 3-(2-((1-Methyl-1H-pyrazol-4-yl)amino)pyrimidin-4-yl)-N-((S)-1,1,1-trifluoropropane-2-yl)-8-azabicyclo[3.2.1]oct-2-ene-8-carboxamide] was below 100 nM; that for `Cn1cc(Nc2nccc(C3=CC4CCC(C3)N4S(=O)(=O)CCC(F)(F)F)n2)cn1` (centres unmarked) [Compound 6, N-(1-methyl-1H-pyrazol-4-yl)-4-(8-((3,3,3-trifluoropropyl)sulfonyl)-8-azabicyclo[3.2.1]oct-2-en-3-yl)pyrimidin-2-amine] was above 1000 nM; that for `Cn1cc(Nc2nccc(C3=CC4CCC(C3)N4C(=O)C34CC(C3)C4)n2)cn1` (centres unmarked) [Compound 72, bicyclo[1.1.1]pentan-1-yl(3-(2-((1-methyl-1H-pyrazol-4-yl)amino)pyrimidin-4-yl)-8-azabicyclo[3.2.1]oct-2-en-8-yl)methanone] was above 1000 nM. The same measure for `O=C([C@@H]1CC1(F)F)N1C2C=C(c3ccnc(Nc4cnn(CCO)c4)n3)CC1CC2` (stereo partly drawn) [Compound 40, ((S)-2,2-difluorocyclopropyl)(3-(2-((1-(2-hydroxyethyl)-1H-pyrazol-4-yl)amino)pyrimidin-4-yl)-8-azabicyclo[3.2.1]oct-2-en-8-yl)methanone]: 100 to 300 nM; for `Cc1cnc(Nc2cnn(C)c2)nc1C1=CC2CCC(C1)N2C(=O)NCC(F)(F)F` (centres unmarked) [Compound 19, 3-(5-methyl-2-((1-methyl-1H-pyrazol-4-yl)amino)pyrimidin-4-yl)-N-(2,2,2-trifluoroethyl)-8-azabicyclo[3.2.1]oct-2-ene-8-carboxamide]: below 100 nM. `Cc1cnc(Nc2cn(C)nc2C)nc1C1=C[C@@H]2CC[C@H](C1)N2C(=O)NCC(F)(F)F` [Compound 26-a, (1S,5R)-3-(2-((1,3-dimethyl-1H-pyrazol-4-yl)amino)-5-methylpyrimidin-4-yl)-N-(2,2,2-trifluoroethyl)-8-azabicyclo[3.2.1]oct-2-ene-8-carboxamide] showed an IC50 above 1000 nM. Take `Cn1cc(Nc2nccc(C3=CC4CCC(C3)N4C(=O)c3ccc(C(F)(F)F)cn3)n2)cn1` (centres unmarked) [Compound 17, (3-(2-((1-methyl-1H-pyrazol-4-yl)amino)pyrimidin-4-yl)-8-azabicyclo[3.2.1]oct-2-en-8-yl)(5-(trifluoromethyl)pyridin-2-yl)methanone]: the half-maximal inhibitory concentration (IC50) is above 1000 nM. Compound `Cc1cnc(Nc2cnn(C3COC3)c2)nc1C1=CC2CCC(C1)N2C(=O)NCC(F)(F)F` (centres unmarked) [Compound 30, 3-(5-Methyl-2-((1-(oxetan-3-yl)-1H-pyrazol-4-yl)amino)pyrimidin-4-yl)-N-(2,2,2-trifluoroethyl)-8-azabicyclo[3.2.1]oct-2-ene-8-carboxamide] gave an IC50 below 100 nM. The compound `Cn1cc(Nc2nccc(C3=CC4CCC(C3)N4C(=O)C3CCOC3)n2)cn1` (centres unmarked) [Compound 76, (3-(2-((1-methyl-1H-pyrazol-4-yl)amino)pyrimidin-4-yl)-8-azabicyclo[3.2.1]oct-2-en-8-yl)(tetrahydrofuran-3-yl)methanone] showed an IC50 of 100 to 300 nM. Compound `Cn1cc(Nc2ncc(Cl)c(C3=C[C@@H]4CC[C@H](C3)N4C(=O)[C@@H]3CC3(F)F)n2)cn1` [Compound 23-a, ((1S,5R)-3-(5-chloro-2-((1-methyl-1H-pyrazol-4-yl)amino)pyrimidin-4-yl)-8-azabicyclo[3.2.1]oct-2-en-8-yl)((S)-2,2-difluorocyclopropyl)methanone] displayed an IC50 below 100 nM. The same measure for `Cn1cc(Nc2nccc(C3=CC4CCC(C3)N4C(=O)COCC(F)(F)F)n2)cn1` (centres unmarked) [Compound 69, 1-(3-(2-((1-methyl-1H-pyrazol-4-yl)amino)pyrimidin-4-yl)-8-azabicyclo[3.2.1]oct-2-en-8-yl)-2-(2,2,2-trifluoroethoxy)-1-one]: 300 to 1000 nM; for `Cn1cc(Nc2ncc(Cl)c(C3=CC4CCC(C3)N4C(=O)NCC(F)(F)F)n2)cn1` (centres unmarked) [Compound 20, 3-(5-chloro-2-((1-methyl-1H-pyrazol-4-yl)amino)pyrimidin-4-yl)-N-(2,2,2-trifluoroethyl)-8-azabicyclo[3.2.1]oct-2-ene-8-carboxamide]: below 100 nM.

In the case of `Cn1cc(Nc2nccc(C3=CC4CCC(C3)N4C(=O)CC(F)F)n2)cn1` (centres unmarked) [Compound 66, 3,3-difluoro-1-(3-(2-((1-methyl-1H-pyrazol-4-yl)amino)pyrimidin-4-yl)-8-azabicyclo[3.2.1]oct-2-en-8-yl)-1-acetone], the IC50 is 100 to 300 nM. The same measure for `Cn1cc(Nc2nccc(C3=CC4CCC(C3)N4C(=O)C34CC(C#N)(C3)C4)n2)cn1` (centres unmarked) [Compound 73, 3-(3-(2-((1-methyl-1H-pyrazol-4-yl)amino)pyrimidin-4-yl)-8-azabicyclo[3.2.1]oct-2-ene-8-formyl)bicyclo[1.1.1]pentane-1-carbonitrile]: above 1000 nM; for `Cn1cc(Nc2nccc(C3=CC4CCC(C3)N4C(=O)N3CC[C@@H](C#N)C3)n2)cn1` (stereo partly drawn) [Compound 7, (R)-1-(3-(2-((1-methyl-1H-pyrazol-4-yl)amino)pyrimidin-4-yl)-8-azabicyclo[3.2.1]oct-2-ene-8-carbonyl)pyrrolidine-3-nitrile]: above 1000 nM. The value for `Cn1cc(Nc2ncc(Cl)c(C3=C[C@H]4CC[C@@H](C3)N4C(=O)[C@@H]3CC3(F)F)n2)cn1` [Compound 23-b, ((1R,5S)-3-(5-chloro-2-((1-methyl-1H-pyrazol-4-yl)amino)pyrimidin-4-yl)-8-azabicyclo[3.2.1]oct-2-en-8-yl)((S)-2,2-difluorocyclopropyl)methanone] was below 100 nM.

`Cc1cnc(Nc2cnn(C)c2C)nc1C1=CC2CCC(C1)N2C(=O)NCC(F)(F)F` (centres unmarked) [Compound 27, 3-(2-((1,5-dimethyl-1H-pyrazol-4-yl)amino)-5-methylpyrimidin-4-yl)-N-(2,2,2-trifluoroethyl)-8-azabicyclo[3.2.1]oct-2-ene-8-carboxamide] gave an IC50 of 300 to 1000 nM.
